These results are taken from patent publication US20090131470A1, “PYRAZOLE-SUBSTITUTED BENZIMIDAZOLE DERIVATIVES FOR USE IN THE TREATMENT OF CANCER AND AUTOIMMUNE DISORDERS” (priority 2005, published 2009).

What all share (type): biochemical
The target of assay [1] is T1, PDK1 (Homo sapiens, UniProt O15530).
T1 sequence (O15530 1-556): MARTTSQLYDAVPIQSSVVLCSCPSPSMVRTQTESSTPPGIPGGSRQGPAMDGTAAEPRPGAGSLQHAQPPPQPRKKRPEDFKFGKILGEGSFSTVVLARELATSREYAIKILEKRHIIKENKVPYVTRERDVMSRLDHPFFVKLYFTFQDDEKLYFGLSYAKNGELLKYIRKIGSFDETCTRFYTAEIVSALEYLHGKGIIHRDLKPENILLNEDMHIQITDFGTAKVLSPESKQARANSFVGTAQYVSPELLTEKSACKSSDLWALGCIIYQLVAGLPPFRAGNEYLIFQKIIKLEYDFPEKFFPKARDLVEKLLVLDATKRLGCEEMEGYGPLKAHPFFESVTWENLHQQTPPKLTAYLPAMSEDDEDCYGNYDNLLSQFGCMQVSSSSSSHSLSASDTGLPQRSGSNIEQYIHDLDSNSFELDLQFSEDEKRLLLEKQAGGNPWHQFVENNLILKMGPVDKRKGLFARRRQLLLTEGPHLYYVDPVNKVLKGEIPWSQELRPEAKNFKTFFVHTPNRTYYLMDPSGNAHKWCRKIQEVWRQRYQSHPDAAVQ
The assay can be described thus: PDK1 kinase assay (33P peptide phosphorylation). The conditions noted are these: 0.01 mM ATP, 60 min at 30° C.; read-out: PDK-1 IC50.

The target of assay [2] is T2, Akt1 (Homo sapiens, UniProt P31749).
T2 construct: purchased Upstate
The experiment in a line: Akt1 kinase assay (Histone H1 substrate). The conditions noted are these: 200 μM ATP, read-out: AKT-1 IC50.

Assay [3] deals with T3, PKA (Homo sapiens, UniProt P17612).
T3 construct: purchased Upstate
The assay can be described thus: PKA kinase assay (Kemptide substrate). The conditions noted are these: 100 μM ATP.

The target of assay [4] is FGFR3 (Homo sapiens, UniProt P22607). The experiment in a line: Kinase selectivity screening (example 14).
FGFR3, sequence (P22607 23-806, species assumed): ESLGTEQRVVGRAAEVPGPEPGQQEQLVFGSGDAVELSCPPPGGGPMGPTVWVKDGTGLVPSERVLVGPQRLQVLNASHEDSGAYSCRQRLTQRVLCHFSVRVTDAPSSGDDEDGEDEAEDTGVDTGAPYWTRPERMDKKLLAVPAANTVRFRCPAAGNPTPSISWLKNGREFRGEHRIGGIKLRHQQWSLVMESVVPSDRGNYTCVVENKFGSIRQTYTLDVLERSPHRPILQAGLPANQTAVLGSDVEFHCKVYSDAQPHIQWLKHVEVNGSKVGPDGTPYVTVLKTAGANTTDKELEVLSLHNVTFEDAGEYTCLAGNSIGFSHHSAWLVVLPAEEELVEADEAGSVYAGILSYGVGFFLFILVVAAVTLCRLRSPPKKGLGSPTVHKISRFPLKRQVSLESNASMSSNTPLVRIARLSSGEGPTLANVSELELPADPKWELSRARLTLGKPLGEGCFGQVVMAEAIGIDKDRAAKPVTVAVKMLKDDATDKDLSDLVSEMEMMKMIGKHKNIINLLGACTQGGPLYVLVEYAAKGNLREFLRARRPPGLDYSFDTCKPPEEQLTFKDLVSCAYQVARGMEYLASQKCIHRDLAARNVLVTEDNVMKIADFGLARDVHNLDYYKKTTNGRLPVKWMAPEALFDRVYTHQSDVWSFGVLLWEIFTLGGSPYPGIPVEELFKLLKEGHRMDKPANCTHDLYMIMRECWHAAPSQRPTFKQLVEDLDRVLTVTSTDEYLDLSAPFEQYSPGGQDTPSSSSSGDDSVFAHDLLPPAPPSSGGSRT

T2 sequence (P31749 whole entry, species assumed): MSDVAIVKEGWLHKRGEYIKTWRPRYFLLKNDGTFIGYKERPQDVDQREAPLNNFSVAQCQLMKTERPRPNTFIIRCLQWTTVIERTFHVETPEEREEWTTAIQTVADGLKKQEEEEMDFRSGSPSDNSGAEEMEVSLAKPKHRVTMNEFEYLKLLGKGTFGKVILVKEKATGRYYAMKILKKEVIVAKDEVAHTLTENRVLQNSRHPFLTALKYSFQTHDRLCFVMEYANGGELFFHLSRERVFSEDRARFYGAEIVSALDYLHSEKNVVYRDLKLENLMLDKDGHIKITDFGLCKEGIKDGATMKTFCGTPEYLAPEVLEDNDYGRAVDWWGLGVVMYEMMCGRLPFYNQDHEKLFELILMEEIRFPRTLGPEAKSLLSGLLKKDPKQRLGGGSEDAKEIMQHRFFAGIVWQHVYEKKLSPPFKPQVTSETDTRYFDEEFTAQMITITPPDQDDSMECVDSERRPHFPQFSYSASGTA

For `Cc1[nH]nc(-c2nc3cc4cn[nH]c4cc3[nH]2)c1C(=O)NC1CCNCC1` [Example 14], the concentration for half-maximal inhibition (IC50) (usually the concentration that gives 50% inhibition) in assay [1] came out at 0.01 µM; in assay [2] it was 26.8 µM; in assay [3], 7.2 µM. Also, in assay [4], the “selectivity versus FGFR3” value is listed as more than 20 fold.
